# Reference: paper PMC8016998, “Identification of potential therapeutic antimicrobial peptides against Acinetobacter baumannii in a mouse model of pneumonia” (Scientific Reports, 2021)
# No end group written: not given here.
# How the values were obtained:
# [1] = system: MDRAB clinical strain AE5; format: cell-based, Acinetobacter baumannii; settings: 24 h
# Method: (§1) MBC were determined by extending the MIC procedure in sterilized 96-well polypropylene microtiter plates according to the broth microdilution guidelines of the Clinical and Laboratory Standards Institute with some modification[47]. […] In addition, 10 µL was drawn from each well with no visible turbidity onto LB agar plates and incubated for 24 h at 37 °C. The lowest concentration showing no visible growth on agar subculture was used as the MBC value. All experiments were performed in triplicate.
# [2] = system: MDRAB clinical strain AG51; format: cell-based, Acinetobacter baumannii; settings: 24 h
# [3] = system: MDRAB clinical strain U80; format: cell-based, Acinetobacter baumannii; settings: 24 h
# Method: as §1
# [4] = system: MDRAB clinical strain AF93; format: cell-based, Acinetobacter baumannii; settings: 24 h
# [5] = system: MDRAB clinical strain AZ93; format: cell-based, Acinetobacter baumannii; settings: 24 h
# Method: as §1
# [6] = system: MDRAB clinical strain AN10; format: cell-based, Acinetobacter baumannii; settings: 24 h
# [7] = system: MDRAB clinical strain L87; format: cell-based, Acinetobacter baumannii; settings: 24 h
# Method: as §1
# [8] = system: MDRAB clinical strain AK29; format: cell-based, Acinetobacter baumannii; settings: 24 h
# Method: as §1
# [9] = system: Acinetobacter baumannii 19,606; format: cell-based; settings: 19,606, 24 h
# Method: as §1
# [10] = system: MDRAB clinical strain O59; format: cell-based, Acinetobacter baumannii; settings: 24 h
# [11] = system: MDRAB clinical strain AK61; format: cell-based, Acinetobacter baumannii; settings: 24 h
# Method: as §1
# [12] = system: MDRAB clinical strain AS40; format: cell-based, Acinetobacter baumannii; settings: 24 h
# Method: as §1
# [13] = system: MDRAB clinical strain D29; format: cell-based, Acinetobacter baumannii; settings: 24 h
# Method: as §1
# [14] = system: MDRAB clinical strain J49; format: cell-based, Acinetobacter baumannii; settings: 24 h
# Method: as §1
# [15] = system: MDRAB clinical strains; format: cell-based, Acinetobacter baumannii; settings: 24 h
# [16] = system: MDRAB clinical strain AF11; format: cell-based, Acinetobacter baumannii; settings: 24 h
# Method: as §1
# [17] = system: MDRAB clinical strain W11; format: cell-based, Acinetobacter baumannii; settings: 24 h
# Method: as §1
# [18] = system: MDRAB clinical strain K2; format: cell-based, Acinetobacter baumannii; settings: 24 h
# [19] = system: MDRAB clinical strain Y92; format: cell-based, Acinetobacter baumannii; settings: 24 h
# Method: as §1
# [20] = system: MDRAB clinical strain AF12; format: cell-based, Acinetobacter baumannii; settings: 24 h
# Method: as §1
# [21] = system: MDRAB clinical strain AL87; format: cell-based, Acinetobacter baumannii; settings: 24 h
# Method: as §1
# [22] = system: Acinetobacter baumannii 17,978; format: cell-based; settings: 17,978, 24 h;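 also: CLSI broth microdilution in 96-well polypropylene plates, MBC taken as lowest concentration giving no growth when clear wells were subcultured on LB agar for 24 h at 37 °C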
# Method: as §1
# [23] = system: MDRAB clinical strain U95; format: cell-based, Acinetobacter baumannii; settings: 24 h
# [24] = system: MDRAB clinical strain AE6; format: cell-based, Acinetobacter baumannii; settings: 24 h
# Method: as §1
# [25] = system: MDRAB clinical strain AO80; format: cell-based, Acinetobacter baumannii; settings: 24 h
# Method: as §1
substance,measurement,setting,value
GWKKWFNRAKKVGKTVGGLAVDHYL-NH2 [NRC12],MBC,[1],16 µg/mL
same,MIC,[1],16 µg/mL
same,MBC,[2],8 µg/mL
same,MIC,[2],8 µg/mL
same,MBC,[3],32 µg/mL
same,MIC,[3],32 µg/mL
same,MBC,[4],16 µg/mL
same,MIC,[4],16 µg/mL
same,MBC,[5],32 µg/mL
same,MIC,[5],32 µg/mL
same,MBC,[6],8 µg/mL
same,MIC,[6],8 µg/mL
same,MBC,[7],32 µg/mL
same,MIC,[7],32 µg/mL
same,MBC,[8],8 µg/mL
same,MIC,[8],8 µg/mL
same,MBC,[9],16 µg/mL
same,MIC,[9],16 µg/mL
same,MBC,[10],32 µg/mL
same,MIC,[10],32 µg/mL
same,MBC,[11],32 µg/mL
same,MIC,[11],32 µg/mL
same,MBC,[12],32 µg/mL
same,MIC,[12],32 µg/mL
same,MBC,[13],16 µg/mL
same,MIC,[13],16 µg/mL
same,MBC,[14],16 µg/mL
same,MIC,[14],16 µg/mL
same,MBC,[15],8 to 32 µg/mL
same,MIC,[15],8 to 32 µg/mL
same,MBC,[16],16 µg/mL
same,MIC,[16],16 µg/mL
same,MBC,[17],16 µg/mL
same,MIC,[17],16 µg/mL
same,MBC,[18],32 µg/mL
same,MIC,[18],16 µg/mL
same,MBC,[19],16 µg/mL
same,MIC,[19],16 µg/mL
same,MBC,[20],16 µg/mL
same,MIC,[20],8 µg/mL
same,MBC,[21],8 µg/mL
same,MIC,[21],8 µg/mL
same,MBC,[22],16 µg/mL
same,MIC,[22],16 µg/mL
same,MBC,[23],32 µg/mL
same,MIC,[23],32 µg/mL
same,MBC,[24],16 µg/mL
same,MIC,[24],16 µg/mL
same,MBC,[25],32 µg/mL
same,MIC,[25],32 µg/mL
GAKYAKIIYNYLKKIANALW [GW-A2],MBC,[1],16 µg/mL
same,MIC,[1],16 µg/mL
same,MBC,[2],8 µg/mL
same,MIC,[2],8 µg/mL
same,MBC,[3],16 µg/mL
same,MIC,[3],16 µg/mL
same,MBC,[4],16 µg/mL
same,MIC,[4],16 µg/mL
same,MBC,[5],16 µg/mL
same,MIC,[5],8 µg/mL
same,MBC,[6],8 µg/mL
same,MIC,[6],8 µg/mL
same,MBC,[7],16 µg/mL
same,MIC,[7],16 µg/mL
same,MBC,[8],8 µg/mL
same,MIC,[8],8 µg/mL
same,MBC,[9],8 µg/mL
same,MIC,[9],8 µg/mL
same,MBC,[10],32 µg/mL
same,MIC,[10],32 µg/mL
same,MBC,[11],8 µg/mL
same,MIC,[11],8 µg/mL
same,MBC,[12],16 µg/mL
same,MIC,[12],8 µg/mL
same,MBC,[13],16 µg/mL
same,MIC,[13],16 µg/mL
same,MBC,[14],16 µg/mL
same,MIC,[14],16 µg/mL
same,MBC,[15],8 to 64 µg/mL
same,MIC,[15],8 to 32 µg/mL
same,MBC,[16],32 µg/mL
same,MIC,[16],16 µg/mL
same,MBC,[17],16 µg/mL
same,MIC,[17],16 µg/mL
same,MBC,[18],64 µg/mL
same,MIC,[18],32 µg/mL
same,MBC,[19],16 µg/mL
same,MIC,[19],16 µg/mL
same,MBC,[20],8 µg/mL
same,MIC,[20],8 µg/mL
same,MBC,[21],8 µg/mL
same,MIC,[21],8 µg/mL
same,MBC,[22],32 µg/mL
same,MIC,[22],32 µg/mL
same,MBC,[23],64 µg/mL
same,MIC,[23],32 µg/mL
same,MBC,[24],32 µg/mL
same,MIC,[24],16 µg/mL
same,MBC,[25],16 µg/mL
same,MIC,[25],8 µg/mL
GIKIAKKAITIAKKIAKIYW [GW-Q6],MBC,[1],8 µg/mL
same,MIC,[1],8 µg/mL
same,MBC,[2],8 µg/mL
same,MIC,[2],8 µg/mL
same,MBC,[3],16 µg/mL
same,MIC,[3],16 µg/mL
same,MBC,[4],16 µg/mL
same,MIC,[4],8 µg/mL
same,MBC,[5],8 µg/mL
same,MIC,[5],8 µg/mL
same,MBC,[6],8 µg/mL
same,MIC,[6],8 µg/mL
same,MBC,[7],16 µg/mL
same,MIC,[7],16 µg/mL
same,MBC,[8],8 µg/mL
same,MIC,[8],8 µg/mL
same,MBC,[9],16 µg/mL
same,MIC,[9],16 µg/mL
same,MBC,[10],32 µg/mL
same,MIC,[10],16 µg/mL
same,MBC,[11],16 µg/mL
same,MIC,[11],16 µg/mL
same,MBC,[12],16 µg/mL
same,MIC,[12],16 µg/mL
same,MBC,[13],32 µg/mL
same,MIC,[13],16 µg/mL
same,MBC,[14],16 µg/mL
same,MIC,[14],16 µg/mL
same,MBC,[15],8 to 32 µg/mL
same,MIC,[15],8 to 16 µg/mL
same,MBC,[16],8 µg/mL
same,MIC,[16],8 µg/mL
same,MBC,[17],16 µg/mL
same,MIC,[17],16 µg/mL
same,MBC,[18],8 µg/mL
same,MIC,[18],8 µg/mL
same,MBC,[19],8 µg/mL
same,MIC,[19],8 µg/mL
same,MBC,[20],8 µg/mL
same,MIC,[20],8 µg/mL
same,MBC,[21],8 µg/mL
same,MIC,[21],8 µg/mL
same,MBC,[22],16 µg/mL
same,MIC,[22],16 µg/mL
same,MBC,[23],32 µg/mL
same,MIC,[23],16 µg/mL
same,MBC,[24],8 µg/mL
same,MIC,[24],8 µg/mL
same,MBC,[25],16 µg/mL
same,MIC,[25],16 µg/mL
